Blank lines part the entries; values can stand above or below the compound they belong to. Calls of active or inactive are those of the source. The rule behind the calls is not given here.
Tests used:
[1] = Chemical stability in simulated intestinal fluid assessed as parent compound remaining incubated for 12 hrs by LC-MS/MS analysis; format: ADME, physicochemical; settings: simulated gi fluid
[2] = Chemical stability in simulated gastric fluid assessed as parent compound remaining incubated for 12 hrs by LC-MS/MS analysis; format: ADME, physicochemical; settings: simulated gi fluid
[3] = Chemical stability of compound in pH 1.2 HCl buffer at 100 uM incubated for 24 hrs by HPLC analysis; format: physicochemical; settings: pH 1.2, 24 h
[4] = Chemical stability of compound in pH 4.5 PBS buffer at 100 uM incubated for 24 hrs by HPLC analysis; format: physicochemical; settings: pH 4.5, 24 h
[5] = Chemical stability of compound in pH 7.4 PBS buffer at 100 uM incubated for 24 hrs by HPLC analysis; format: physicochemical; settings: pH 7.4, 24 h
[6] = Prodrug conversion in Sprague-Dawley rat colon content suspension assessed as tofacitinib release measured upto 8 hrs by HPLC analysis; format: ADME, tissue-based
[7] = Ratio of prodrug conversion in BALB/c mouse intestine assessed as tofacitinib AUC(0 to 12 hrs) at 22.5 mg/kg, po to prodrug conversion in BALB/c mouse ileum assessed as tofacitinib AUC(0 to 12 hrs) at 22.5 mg/kg, po; format: ADME, organism-based; settings: in vivo
[8] = Ratio of prodrug conversion in BALB/c mouse intestine assessed as tofacitinib AUC(0 to 12 hrs) at 22.5 mg/kg, po to prodrug conversion in BALB/c mouse jejunum assessed as tofacitinib AUC(0 to 12 hrs) at 22.5 mg/kg, po; format: ADME, organism-based; settings: in vivo
[9] = Acute toxicity in Kunming mouse assessed as change in creatine level in kidney at 2000 mg/kg, po measured for 7 days; format: organism-based; settings: in vivo, 168 h, time 7 day
[10] = Acute toxicity in Kunming mouse assessed as change in urea level in kidney at 2000 mg/kg, po measured for 7 days; format: organism-based; settings: in vivo, 168 h, time 7 day
[11] = Acute toxicity in Kunming mouse assessed as change in ALT level in liver at 2000 mg/kg, po measured for 7 days; format: organism-based; settings: in vivo, 168 h, time 7 day
[12] = Acute toxicity in Kunming mouse assessed as change in AST level in liver at 2000 mg/kg, po measured for 7 days; format: organism-based; settings: in vivo, 168 h, time 7 day
[13] = Prodrug conversion in Sprague-Dawley rat assessed as tofacitinib release at 22.5 mg/kg, po measured after 1 hr by HPLC analysis; format: ADME, organism-based; settings: in vivo
[14] = Prodrug conversion in Sprague-Dawley rat assessed as Cmax of tofacitinib at 22.5 mg/kg, po measured up to 20 hrs by LC-MS/MS analysis; format: ADME, organism-based; set-up: route oral, dose 22.5 mg/kg, time <=20; settings: in vivo
[15] = Prodrug conversion in Sprague-Dawley rat assessed as Tmax of tofacitinib at 22.5 mg/kg, po measured up to 20 hrs by LC-MS/MS analysis; format: ADME, organism-based; settings: in vivo
[16] = Prodrug conversion in Sprague-Dawley rat assessed as AUC (0 to infinity) of tofacitinib at 22.5 mg/kg, po measured up to 20 hrs by LC-MS/MS analysis; format: ADME, organism-based; set-up: route oral, dose 22.5 mg/kg, time <=20; settings: in vivo
[17] = Prodrug conversion in Sprague-Dawley rat assessed as elimination half life of tofacitinib at 22.5 mg/kg, po measured up to 20 hrs by LC-MS/MS analysis; format: ADME, organism-based; settings: in vivo
[18] = Prodrug conversion in BALB/c mouse plasma assessed as tofacitinib AUC(0 to 12 hrs) at 22.5 mg/kg, po measured upto 12 hrs by LC-MS/MS analysis; format: ADME, organism-based; set-up: route oral, dose 22.5 mg/kg, time <=12; settings: in vivo
[19] = Ratio of prodrug conversion in BALB/c mouse intestine assessed as tofacitinib AUC(0 to 12 hrs) at 22.5 mg/kg, po to prodrug conversion in BALB/c mouse duodenum assessed as tofacitinib AUC(0 to 12 hrs) at 22.5 mg/kg, po; format: ADME, organism-based; settings: in vivo
[20] = Prodrug conversion in BALB/c mouse duodenum assessed as tofacitinib AUC(0 to 12 hrs) at 22.5 mg/kg, po measured upto 12 hrs by LC-MS/MS analysis; format: ADME, organism-based; set-up: route oral, dose 22.5 mg/kg, time <=12; settings: in vivo
[21] = Prodrug conversion in BALB/c mouse jejunum assessed as tofacitinib AUC(0 to 12 hrs) at 22.5 mg/kg, po measured upto 12 hrs by LC-MS/MS analysis; format: ADME, organism-based; set-up: route oral, dose 22.5 mg/kg, time <=12; settings: in vivo
[22] = Prodrug conversion in BALB/c mouse ileum assessed as tofacitinib AUC(0 to 12 hrs) at 22.5 mg/kg, po measured upto 12 hrs by LC-MS/MS analysis; format: ADME, organism-based; set-up: route oral, dose 22.5 mg/kg, time <=12; settings: in vivo
[23] = Prodrug conversion in BALB/c mouse colon assessed as tofacitinib AUC(0 to 12 hrs) at 22.5 mg/kg, po measured upto 12 hrs by LC-MS/MS analysis; format: ADME, organism-based; set-up: route oral, dose 22.5 mg/kg, time <=12; settings: in vivo
Mus musculus [24] = assay: Anti-ulcerative colitis activity against oxazolone induced ulcerative colitis Balb/c mouse model assessed as prevention of body weight loss at 1.5 mg/kg, po bid incubated for 24 hrs; format: functional, organism-based
Mus musculus [25] = assay: Anti-ulcerative colitis activity against oxazolone induced ulcerative colitis Balb/c mouse model assessed as prevention of body weight loss at 1.5 mg/kg, po bid measured after 36 hrs; format: functional, organism-based
Mus musculus [26] = assay: Anti-ulcerative colitis activity against oxazolone induced ulcerative colitis BALB/c mouse model assessed as improved stool consistency at 1.5 mg/kg, po bid measured after 36 hrs; format: functional, organism-based
Mus musculus [27] = assay: Anti-ulcerative colitis activity against BALB/c mouse model of oxazolone-induced ulcerative colitis assessed as prevention of oxazolone-induced increase in colon density at 1.5 mg/kg, po bid measured after 4 days; format: functional, organism-based; settings: time 4.0 day
Mus musculus [28] = assay: Anti-ulcerative colitis activity against BALB/c oxazolone-induced ulcerative colitis mouse model assessed as prevention of oxazolone-induced increase in colon weight at 1.5 mg/kg, po bid measured after 4 days; format: functional, organism-based; settings: time 4.0 day
Mus musculus [29] = assay: Anti-ulcerative colitis activity against BALB/c oxazolone-induced ulcerative colitis mouse model assessed as prevention of oxazolone-induced increase in shortening of colon length at 1.5 mg/kg, po bid measured after 4 days; format: functional, organism-based; settings: time 4.0 day
Mus musculus [30] = assay: Anti-ulcerative colitis activity against oxazolone-induced ulcerative colitis BALB/c mouse model assessed as improvement in spleen index at 1.5 mg/kg, po bid measured after 4 days; format: functional, organism-based; settings: time 4.0 day
Mus musculus [31] = assay: Anti-ulcerative colitis activity against BALB/c oxazolone-induced ulcerative colitis mouse model assessed as prevention of oxazolone-induced edema at 1.5 mg/kg, po by H and E staining based histopathological analysis; format: functional, organism-based
Mus musculus [32] = assay: Anti-ulcerative colitis activity against BALB/c oxazolone-induced ulcerative colitis mouse model assessed as prevention of oxazolone-induced leukocyte infiltration at 1.5 mg/kg, po by H and E staining based histopathological analysis; format: functional, organism-based
Mus musculus [33] = assay: Anti-ulcerative colitis activity against BALB/c oxazolone-induced ulcerative colitis mouse model assessed as preserved intestinal mucosal epithelial integrity at 1.5 mg/kg, po by H and E staining based histopathological analysis; format: functional, organism-based
Mus musculus [34] = assay: Immunosuppressive activity in BALB/c mouse assessed as reduction in CD49+ NK cell count at 1.5 mg/kg, ig bid measured after 4 days by flow cytometry analysis; format: functional, organism-based; settings: time 4.0 day
Mus musculus [35] = assay: Immunosuppressive activity in BALB/c mouse assessed as reduction in spleen index at 1.5 mg/kg, ig bid measured after 4 days by flow cytometry analysis; format: functional, organism-based; settings: time 4.0 day
[36] = Acute toxicity in Kunming mouse assessed as animal death at 2000 mg/kg, po measured for 7 days; format: organism-based; settings: in vivo, 168 h, time 7 day
[37] = Acute toxicity in Kunming mouse model assessed as increase in body weight at 2000 mg/kg, po measured for 7 days; format: organism-based; settings: in vivo, 168 h, time 7 day
[38] = Toxicity in Kunming mouse assessed as change in liver index at 2000 mg/kg, po measured for 7 days; format: organism-based; settings: in vivo, 168 h, time 7 day
[39] = Toxicity in Kunming mouse assessed as change in kidney index at 2000 mg/kg, po measured for 7 days; format: organism-based; settings: in vivo, 168 h, time 7 day
[40] = Toxicity in Kunming mouse assessed as change in spleen index at 2000 mg/kg, po measured for 7 days; format: organism-based; settings: in vivo, 168 h, time 7 day
[41] = Ratio of prodrug conversion in BALB/c mouse intestine assessed as tofacitinib AUC(0 to 12 hrs) at 22.5 mg/kg, po to prodrug conversion in BALB/c mouse colon assessed as tofacitinib AUC(0 to 12 hrs) at 22.5 mg/kg, po; format: ADME, organism-based; settings: in vivo
Mus musculus [42] = assay: Anti-ulcerative colitis activity against oxazolone induced ulcerative colitis BALB/c mouse model assessed as improved stool blood at 1.5 mg/kg, po bid measured after 36 hrs; format: functional, organism-based

Stability [1]: Stable
Stability [2]: Stable
Stability [3]: Stable
Stability [4]: Stable
Stability [5]: Stable
Drug metabolism [6]: 1.6 mmol/L/h
Structure (SMILES): Cc1cc(COC(=O)N(C)CCN(C)C(=O)n2ccc3c(N(C)[C@H]4CN(C(=O)CC#N)CC[C@H]4C)ncnc32)ccc1/N=N/c1ccc(O)c(C(=O)O)c1

Stability [1]: Stable
Stability [2]: Stable
Stability [3]: Stable
Stability [4]: Stable
Stability [5]: Stable
Drug metabolism [6]: 2.46 mmol/L/h
Structure (SMILES): COc1cc(COC(=O)N(C)CCN(C)C(=O)n2ccc3c(N(C)[C@H]4CN(C(=O)CC#N)CC[C@H]4C)ncnc32)ccc1/N=N/c1ccc(O)c(C(=O)O)c1

Structure (SMILES): C[C@@H]1CCN(C(=O)CC#N)C[C@@H]1N(C)c1ncnc2c1ccn2C(=O)N(C)CCN(C)C(=O)OCc1ccc(/N=N/c2ccc(O)c(C(=O)O)c2)cc1Cl
Ratio AUC [7]: 7.1
Ratio AUC [8]: 4.49
Activity [9]: Non-Toxic
Activity [10]: Non-Toxic
Activity [11]: Non-Toxic
Activity [12]: Non-Toxic
Stability [1]: Stable
Stability [2]: Stable
Stability [3]: Stable
Stability [4]: Stable
Stability [5]: Stable
Drug metabolism [6]: 3.22 mmol/L/h
Drug metabolism [13]: Metabolite_Detected
Cmax [14]: 2490 nM
Tmax [15]: 8 h
AUC [16]: 19.27 µM·h
beta t1/2 [17]: 3.09 h
AUC [18]: 4.5 µM·h
Ratio AUC [19]: 1.48
AUC [20]: 99 µM·h
AUC [21]: 193 µM·h
AUC [22]: 357 µM·h
AUC [23]: 1600 µM·h
Activity (Mus musculus [24]): Active
Activity (Mus musculus [25]): Active
Activity (Mus musculus [26]): Active
Activity (Mus musculus [27]): Active
Activity (Mus musculus [28]): Active
Activity (Mus musculus [29]): Active
Activity (Mus musculus [30]): Active
Activity (Mus musculus [31]): Active
Activity (Mus musculus [32]): Active
Activity (Mus musculus [33]): Active
Activity (Mus musculus [34]): inactive
Activity (Mus musculus [35]): inactive
Activity [36]: Non-Toxic
Activity [37]: Non-Toxic
Activity [38]: Non-Toxic
Activity [39]: Non-Toxic
Activity [40]: Non-Toxic
Ratio AUC [41]: 9.61
Activity (Mus musculus [42]): Active

Stability [1]: Stable
Stability [2]: Stable
Stability [3]: Stable
Stability [4]: Stable
Stability [5]: Stable
Drug metabolism [6]: 2.44 mmol/L/h
Structure (SMILES): COc1cc(/N=N/c2ccc(O)c(C(=O)O)c2)ccc1COC(=O)N(C)CCN(C)C(=O)n1ccc2c(N(C)[C@H]3CN(C(=O)CC#N)CC[C@H]3C)ncnc21

— ChEMBL document CHEMBL5046297, “Discovery of a Colon-Targeted Azo Prodrug of Tofacitinib through the Establishment of Colon-Specific Delivery Systems Constructed by 5-ASA-PABA-MAC and 5-ASA-PABA-Diamine for the Treatment of Ulcerative Colitis” (J Med Chem, 2022)
